Tests used:
Experiment in all cases: GRmax, 72 h; higher = less effect;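 also: breast cell lines in 384-well plates, nine doses across a 10^4 range, Dye Drop imaging of viable cells vs DMSO and time-zero plates, GR 0 means no net growth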
HCC1395 = tested on: HCC1395
MDAMB436 = tested on: MDAMB436
SUM1315 = tested on: SUM1315
CAL851 = tested on: CAL851
SUM190PT = tested on: SUM190PT
HCC1937 = tested on: HCC1937
SUM149 = tested on: SUM149
HTERT_HME1 = tested on: HTERT_HME1
UACC893 = tested on: UACC893
PDXHCI002 = tested on: PDXHCI002
HCC38 = tested on: HCC38

Structure (SMILES)	GRmax, 72 h (HCC1395) [GR]	GRmax, 72 h (MDAMB436) [GR]	GRmax, 72 h (SUM1315) [GR]	GRmax, 72 h (CAL851) [GR]	GRmax, 72 h (SUM190PT) [GR]	GRmax, 72 h (HCC1937) [GR]	GRmax, 72 h (SUM149) [GR]	GRmax, 72 h (HTERT_HME1) [GR]	GRmax, 72 h (UACC893) [GR]	GRmax, 72 h (PDXHCI002) [GR]	GRmax, 72 h (HCC38) [GR]
O=C(CCCCCCC(=O)Nc1ccccc1)NO [Vorinostat] (max 10 µM)	-0.0589	0.033	-0.0668	-0.183	-0.431	-0.0085	-0.0704	0.0551	-0.337	-0.583	-0.285
Cc1nc(Nc2ncc(C(=O)Nc3c(C)cccc3Cl)s2)cc(N2CCN(CCO)CC2)n1 [Dasatinib] (max 10 µM)	-0.337	0.653	-0.237	-0.244	0.423	0.0153	-0.172	-0.0749	0.706	0.0322	0.332
Nc1cc(C(F)(F)F)c(-c2cc(N3CCOCC3)nc(N3CCOCC3)n2)cn1 [Buparlisib/NVP-BKM120] (max 10 µM)	-0.506	-0.287	-0.369	-0.32	-0.342	-0.226	-0.331	-0.241	-0.833	-0.48	-0.276
CC(C)Nc1cc(-c2c[nH]c(C(=O)N[C@H](CO)c3cccc(Cl)c3)c2)c(Cl)cn1 [BVD523] (max 10 µM)	0.253	0.649	0.207	0.274	0.237	0.534	0.204	0.001	0.274	0.286	0.371
CC[C@@H]1C(=O)N(C)c2cnc(Nc3ccc(C(=O)N[C@H]4CC[C@H](N5CCN(CC6CC6)CC5)CC4)cc3OC)nc2N1C(C)C [Volasertib/BI6727] (max 1 µM)	-0.296	-0.179	-0.388	-0.289	-0.309	-0.148	-0.297	-0.0817	-0.424	-0.589	-0.26
CNCc1ccc(-c2[nH]c3cc(F)cc4c3c2CCNC4=O)cc1 [Rucaparib] (max 10 µM)	0.234	0.222	0.0259	0.44	0.771	0.815	0.559	0.785	0.502	0.516	0.652
CC(C)NC[C@@H](C(=O)N1CCN(c2ncnc3c2[C@H](C)C[C@H]3O)CC1)c1ccc(Cl)cc1 [Ipatasertib/GDC0068] (max 10 µM)	0.19	0.611	0.607	0.471	0.525	0.535	0.291	0.635	-0.794	1.1	0.706
Nc1ccc(-c2ccc3ncc4ccc(=O)n(-c5cccc(C(F)(F)F)c5)c4c3c2)cn1 [Torin2] (max 1 µM)	-0.142	0.123	-0.0903	-0.154	-0.391	0.0726	0.0058	0.0764	-0.828	-0.102	-0.211
NC1(C(=O)N[C@@H](CCO)c2ccc(Cl)cc2)CCN(c2nc[nH]c3nccc2-3)CC1 [AZD5363] (max 10 µM)	0.0739	0.728	0.694	0.592	0.243	0.504	0.34	0.564	-0.798	1.08	0.731
CN(C)C/C=C/C(=O)Nc1ccc(C(=O)Nc2cccc(Nc3cc(-c4c[nH]c5ccccc45)ncn3)c2)cc1 [THZ-P1-2] (max 10 µM)	-0.908	-0.278	-0.299	0.468	-0.218	-0.777	-0.589	0.566	-0.761	0.721	-0.509
O=C1NC(=O)[C@@H](c2cn3c4c(cccc24)CCC3)[C@@H]1c1c[nH]c2ccccc12 [Tivantinib/ARQ197] (max 10 µM)	-0.483	-0.271	-0.43	-0.326	-0.138	-0.0621	-0.224	-0.161	-0.248	-0.487	-0.27
CN1CC[C@H](c2c(O)cc(O)c3c(=O)cc(-c4ccccc4Cl)oc23)[C@H](O)C1 [Flavopiridol] (max 1 µM)	-0.644	-0.0264	-0.887	-0.223	-0.324	-0.215	-0.605	-0.408	-0.464	-0.143	-0.448
CN(C)C/C=C/C(=O)Nc1ccc(C(=O)Nc2cccc(Nc3ncc(Cl)c(-c4c[nH]c5ccccc45)n3)c2)cc1 [THZ1] (max 1 µM)	-0.784	-0.0798	-0.906	-0.549	-0.467	-0.386	-0.52	-0.455	-0.525	-0.193	-0.568
CNc1nc(-c2ccc3c(N)n[nH]c3c2)cc(N2C[C@@H](C(=O)NC3CCCCC3)CC[C@H]2C)n1 (max 10 µM)	0.518	0.811	0.421	0.506	0.236	0.585	0.698	0.641	0.144	0.867	0.767
CCC(=O)Nc1ccc(C(=O)Nc2ccc(Nc3ncc4c(n3)N(C)c3ccc(C)cc3C(=O)N4C)cc2)cc1 [FMF-03-145-1]	-0.151	-0.189	-0.274	-0.136	0.0989	-0.0558	-0.101	-0.0813	0.127	-0.102	-0.376
